Data taken from patent US20140080795A1, “NRF2 Deficiency Influences Susceptibility to Steroid Resistance via HDAC2 Reduction” (University of Rochester, priority 2010, published 2014).

Legend:
[1] = test system: MCP-1; assay: LPS-induced lung inflammation in mice: MCP-1 levels in lung tissue by ELISA; assay type: in vivo, mouse; conditions: Nrf2-/- mice, budesonide 1 and 3 mg/kg pretreatment
Protocol: Briefly, age-matched WT, Nrf2−/− and HDAC2−/− were exposed to aerosolized Escherichia coli LPS (1 mg/ml) for 8 minutes. Aerosolized saline-exposed mice were used as controls, and animals were sacrificed at 24 h post last exposure. […] Monocyte chemotactic protein 1 (MCP-1) levels were measured from mouse lung soluble protein by enzyme-linked immunosorbent assay (ELISA) with the duo-antibody kit (R & D Systems). Results were normalized to protein concentration per sample. […] Briefly, age-matched wild-type, Nrf2−/− and HDAC2−/− were exposed to aerosolized Escherichia coli LPS diluted to 1 mg/ml for 8 minutes. Aerosolized saline-exposed mice were used as controls and animals were sacrificed at 24 h post last exposure (Yao et al., Am J Respir Cell Mol Biol 39: 7-18 (2008)). […] Monocyte chemotactic protein 1 (MCP-1) levels were measured from mouse lung soluble protein by enzyme-linked immunosorbent assay (ELISA) with the MCP-1 duo-antibody kit (R & D Systems). Results were normalized to protein concentration per sample.

[2] = test system: KC; assay: LPS-induced lung inflammation in mice: KC levels in lung homogenates by ELISA; assay type: in vivo, mouse

SMILES: CCCC1O[C@@H]2C[C@H]3[C@@H]4CCC5=CC(=O)C=C[C@]5(C)[C@H]4[C@@H](O)C[C@]3(C)[C@]2(C(=O)CO)O1 (stereo partly drawn) [budesonide]
- LPS-induced release of MCP-1 in lung [1]: no inhibitory effect
- KC release in lung ([2]; HDAC2-/- mice, budesonide 3 mg/kg pretreatment): no significant effect
- LPS-induced release of KC in lung ([2]; Nrf2-/- mice, budesonide 1 and 3 mg/kg pretreatment): no inhibitory effect
